This passage reports IC50 and Ki results from ChEMBL document CHEMBL1909046, “DrugMatrix in vitro pharmacology data”.

The target in one data set is Adenosine receptor A2a (Homo sapiens, UniProt P29274). Description: DRUGMATRIX: Adenosine A2A radioligand binding (ligand: […]). Particulars: hek293; Not Active = under 50% inhibition at 10 µM. The data set is classed as cell membranes, HEK293, Membrane.
Data set [1] concerns the target Platelet-activating factor receptor (Homo sapiens, UniProt P25105). The format is tissue-based. Further: in other assays of this panel Not Active means under 50% inhibition at 10 µM.
Another data set addresses Cytochrome P450 2E1 (Homo sapiens, UniProt P05181). The settings on record: bti-tn-5b1-4.
Data set [2] in a line: DRUGMATRIX: Glutamate, NMDA, Phencyclidine radioligand binding (ligand: [3H] TCP). The data set is classed as cell membranes, Rattus norvegicus, Wistar, Cerebral cortex, Membrane. The settings on record: Not Active = under 50% inhibition at 10 µM.
Data set [3] in a line: DRUGMATRIX: Calcium Channel Type L, Benzothiazepine radioligand binding (ligand: [3H] Diltiazem). The format is cell membranes, Rattus norvegicus, Wistar, Brain, Membrane. Particulars: Not Active = under 50% inhibition at 10 µM.
Data set [4] is described as follows: DRUGMATRIX: Glutamate, NMDA, Agonism radioligand binding (ligand: [3H] CGP-39653). Particulars: Not Active = under 50% inhibition at 10 µM. The data set is classed as cell membranes, Rattus norvegicus, Wistar, Cerebral cortex, Membrane.
Data set [5] addresses Sigma non-opioid intracellular receptor 1 (Homo sapiens, UniProt Q99720). Description: DRUGMATRIX: Sigma1 radioligand binding (ligand: [3H] Haloperidol). The settings on record: Not Active = under 50% inhibition at 10 µM; for Ki: read-out: Ki. The format is cell membranes, Jurkat, Membrane.
Data set [6] can be described thus: DRUGMATRIX: beta-Lactamase enzyme inhibition (substrate: Nitrocefin). Particulars: Not Active = under 50% inhibition at 10 µM. Also on record: species or system Bacillus cereus.

Sequence of Cytochrome P450 2E1 (P05181 whole entry): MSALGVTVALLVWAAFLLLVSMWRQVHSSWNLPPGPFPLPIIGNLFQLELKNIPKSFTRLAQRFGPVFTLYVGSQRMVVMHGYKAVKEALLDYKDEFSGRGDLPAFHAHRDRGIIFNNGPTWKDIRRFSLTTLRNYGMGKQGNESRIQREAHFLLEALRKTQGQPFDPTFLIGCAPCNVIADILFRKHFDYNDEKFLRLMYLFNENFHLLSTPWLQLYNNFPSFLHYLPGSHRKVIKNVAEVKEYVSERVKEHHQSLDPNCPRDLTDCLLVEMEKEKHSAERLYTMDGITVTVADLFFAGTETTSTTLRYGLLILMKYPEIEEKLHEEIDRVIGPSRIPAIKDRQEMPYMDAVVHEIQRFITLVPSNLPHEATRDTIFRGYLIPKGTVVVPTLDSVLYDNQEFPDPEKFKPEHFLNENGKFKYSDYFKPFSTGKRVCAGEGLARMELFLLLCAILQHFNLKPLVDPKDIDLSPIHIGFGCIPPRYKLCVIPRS
Sequence of Sigma non-opioid intracellular receptor 1 (Q99720 whole entry): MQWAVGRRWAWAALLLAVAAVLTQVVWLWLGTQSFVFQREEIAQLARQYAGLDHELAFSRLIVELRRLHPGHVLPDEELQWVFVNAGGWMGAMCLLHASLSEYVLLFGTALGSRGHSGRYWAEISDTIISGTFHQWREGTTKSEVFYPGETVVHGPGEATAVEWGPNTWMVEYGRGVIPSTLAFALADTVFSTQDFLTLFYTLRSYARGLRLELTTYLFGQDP
Sequence of Platelet-activating factor receptor (P25105 whole entry): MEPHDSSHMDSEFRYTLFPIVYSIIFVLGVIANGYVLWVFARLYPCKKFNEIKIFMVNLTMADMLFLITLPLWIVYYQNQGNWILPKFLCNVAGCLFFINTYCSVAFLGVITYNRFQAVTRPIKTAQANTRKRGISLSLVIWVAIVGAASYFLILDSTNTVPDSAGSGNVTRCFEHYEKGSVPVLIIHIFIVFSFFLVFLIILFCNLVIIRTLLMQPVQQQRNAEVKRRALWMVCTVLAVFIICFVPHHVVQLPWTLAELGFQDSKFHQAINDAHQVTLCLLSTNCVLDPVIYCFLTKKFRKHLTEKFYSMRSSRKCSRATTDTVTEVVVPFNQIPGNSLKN
Sequence of Adenosine receptor A2a (P29274 whole entry): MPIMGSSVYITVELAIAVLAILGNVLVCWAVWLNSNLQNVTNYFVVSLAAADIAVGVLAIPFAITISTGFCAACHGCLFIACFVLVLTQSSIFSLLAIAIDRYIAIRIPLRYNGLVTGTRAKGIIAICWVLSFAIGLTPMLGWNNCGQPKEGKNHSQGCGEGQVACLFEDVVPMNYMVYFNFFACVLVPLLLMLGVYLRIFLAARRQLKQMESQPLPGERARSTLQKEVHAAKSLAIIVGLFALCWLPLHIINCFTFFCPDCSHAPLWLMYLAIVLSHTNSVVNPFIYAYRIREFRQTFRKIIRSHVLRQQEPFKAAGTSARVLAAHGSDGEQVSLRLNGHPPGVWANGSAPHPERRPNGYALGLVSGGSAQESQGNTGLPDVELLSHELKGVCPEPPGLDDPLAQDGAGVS

Regarding `C#C[C@]1(O)CC[C@H]2[C@@H]3[C@H](C)CC4=C(CCC(=O)C4)[C@H]3CC[C@@]21C` [TIBOLONE], the IC50 result (at Adenosine receptor A2a; in data set [1]; against Cytochrome P450 2E1; in data set [2]; in data set [3]; in data set [4]) was “Not Active” each time. Further, the IC50 result in data set [5] (jurkat) and in data set [6] was “Not Active” each time. Besides, the inhibition constant Ki entry (at Cytochrome P450 2E1; in data set [2]; in data set [3]; in data set [4]; in data set [6]) was “Not Active” in each case.

For `C[C@]12CCC(=O)C[C@@H]1CC[C@@H]1[C@@H]2CC[C@]2(C)[C@@H](O)CC[C@@H]12` [STANOLONE], the IC50 result (at Adenosine receptor A2a; in data set [1]; against Cytochrome P450 2E1; in data set [2]; in data set [3]; in data set [4]) was “Not Active” each time. Moreover, the concentration for half-maximal inhibition (IC50) result in data set [5] (jurkat) and in data set [6] was “Not Active” in each case. The Ki result (on Cytochrome P450 2E1; in data set [2]; in data set [3]; in data set [4]; in data set [6]) was “Not Active” throughout.

For `CC(C)(C)NC[C@H](O)COc1cccc2c1CCCC2=O` [LEVOBUNOLOL], the half-maximal inhibitory concentration (IC50) result (on Adenosine receptor A2a; in data set [1]; on Cytochrome P450 2E1; in data set [2]; in data set [3]; in data set [4]) was “Not Active” throughout. The IC50 was 773 nM in data set [5] (read-out: IC50) and “Not Active” in data set [6]. Further, the Ki entry at Cytochrome P450 2E1 is “Not Active”; in data set [2] it was “Not Active”; in data set [3] it was “Not Active”; in data set [4], “Not Active”; in data set [5], 325 nM; in data set [6], “Not Active”.

Turning to `CCN1CCCC1CNC(=O)c1cc(S(N)(=O)=O)ccc1OC` (centres undefined) [SULPIRIDE], the IC50 result (on Adenosine receptor A2a; in data set [1]; against Cytochrome P450 2E1; in data set [2]; in data set [3]; in data set [4]) was “Not Active” throughout. For the same molecule, the IC50 entry in data set [5] (jurkat) and in data set [6] was “Not Active” throughout. The Ki entry (on Cytochrome P450 2E1; in data set [2]; in data set [3]; in data set [4]; in data set [6]) was “Not Active” throughout.

As for `CCN(CC)C(=S)SSC(=S)N(CC)CC`, the IC50 result (at Adenosine receptor A2a; in data set [1]; at Cytochrome P450 2E1; in data set [2]; in data set [3]; in data set [4]) was “Not Active” each time. Besides, the IC50 entry in data set [5] (jurkat) and in data set [6] was “Not Active” in each case. Further, the Ki result (on Cytochrome P450 2E1; in data set [2]; in data set [3]; in data set [4]; in data set [6]) was “Not Active” in each case.

As to `OC[C@@H](O)[C@@H](O)[C@H](O)[C@H](O)CO` [MANNITOL], the IC50 entry (on Adenosine receptor A2a; in data set [1]; against Cytochrome P450 2E1; in data set [2]; in data set [3]; in data set [4]) was “Not Active” throughout. The IC50 entry in data set [5] (jurkat) and in data set [6] was “Not Active” in each case. For the same molecule, the Ki entry (at Cytochrome P450 2E1; in data set [2]; in data set [3]; in data set [4]; in data set [6]) was “Not Active” throughout.

Turning to `C[N+]1(C)[C@@H]2C[C@@H](OC(=O)[C@H](CO)c3ccccc3)C[C@H]1[C@@H]1O[C@@H]12.[Br-]` [METHSCOPOLAMINE BROMIDE], the half-maximal inhibitory concentration (IC50) result (on Adenosine receptor A2a; in data set [1]; at Cytochrome P450 2E1; in data set [2]; in data set [3]; in data set [4]) was “Not Active” throughout. In addition, the IC50 result in data set [5] (jurkat) and in data set [6] was “Not Active” throughout. Moreover, the Ki entry (on Cytochrome P450 2E1; in data set [2]; in data set [3]; in data set [4]; in data set [6]) was “Not Active” each time.

For the molecule `CCN(CC)CCNC(=O)c1cc(Cl)c(N)cc1OC` [METOCLOPRAMIDE], the IC50 result (at Adenosine receptor A2a; in data set [1]; on Cytochrome P450 2E1; in data set [2]; in data set [3]; in data set [4]) was “Not Active” in each case. In addition, the IC50 entry in data set [5] (jurkat) and in data set [6] was “Not Active” each time. For the same molecule, the Ki result (on Cytochrome P450 2E1; in data set [2]; in data set [3]; in data set [4]; in data set [6]) was “Not Active” throughout.

Turning to `CC(=O)O[C@]1(C(C)=O)CC[C@H]2[C@@H]3C[C@H](C)C4=CC(=O)CC[C@]4(C)[C@H]3CC[C@@]21C` [MEDROXYPROGESTERONE ACETATE], the IC50 entry (at Adenosine receptor A2a; in data set [1]; against Cytochrome P450 2E1; in data set [2]; in data set [3]; in data set [4]) was “Not Active” throughout. Also, the IC50 entry in data set [5] (jurkat) and in data set [6] was “Not Active” in each case. In addition, the Ki result (at Cytochrome P450 2E1; in data set [2]; in data set [3]; in data set [4]; in data set [6]) was “Not Active” in each case.

For the molecule `Cc1ccnc(NS(=O)(=O)c2ccc(N)cc2)n1` [SULFAMERAZINE], the IC50 entry (at Adenosine receptor A2a; in data set [1]; against Cytochrome P450 2E1; in data set [2]; in data set [3]; in data set [4]) was “Not Active” each time. Further, the half-maximal inhibitory concentration (IC50) entry in data set [5] (jurkat) and in data set [6] was “Not Active” in each case. The Ki result (on Cytochrome P450 2E1; in data set [2]; in data set [3]; in data set [4]; in data set [6]) was “Not Active” each time.

In the case of `O=C(c1ccccc1)c1ccc2n1CCC2C(=O)O` (centres undefined) [KETOROLAC], the IC50 result (at Adenosine receptor A2a; in data set [1]; against Cytochrome P450 2E1; in data set [2]; in data set [3]; in data set [4]) was “Not Active” throughout. Also, the IC50 entry in data set [5] (jurkat) and in data set [6] was “Not Active” throughout. The Ki result (on Cytochrome P450 2E1; in data set [2]; in data set [3]; in data set [4]; in data set [6]) was “Not Active” in each case.

On to `Cc1nnc(NS(=O)(=O)c2ccc(N)cc2)s1` [SULFAMETHIZOLE], for which the IC50 entry (at Adenosine receptor A2a; in data set [1]; against Cytochrome P450 2E1; in data set [2]; in data set [3]; in data set [4]) was “Not Active” in each case. Further, the IC50 entry in data set [5] (jurkat) and in data set [6] was “Not Active” throughout. For the same molecule, the Ki result (at Cytochrome P450 2E1; in data set [2]; in data set [3]; in data set [4]; in data set [6]) was “Not Active” throughout.

`CCC(C)(C)C(=O)O[C@H]1C[C@@H](C)C=C2C=C[C@H](C)[C@H](CC[C@@H]3C[C@@H](O)CC(=O)O3)[C@H]21` [SIMVASTATIN]: the IC50 entry (at Adenosine receptor A2a; in data set [1]; in data set [2]; in data set [3]; in data set [4]; in data set [5] (jurkat)) was “Not Active” in each case. Also, the IC50 entry in data set [6] is reported as “Not Active”. In addition, the Ki entry in data set [2], in data set [3], in data set [4] and in data set [6] was “Not Active” each time.

For the molecule `CNCCCC12CCC(c3ccccc31)c1ccccc12` [MAPROTILINE], the IC50 entry (on Adenosine receptor A2a; in data set [1]; in data set [5] (jurkat)) was “Not Active” throughout.

Consider `CN(C)CCC=C1c2ccccc2COc2ccccc21` [DOXEPIN], for which the IC50 result on Adenosine receptor A2a is “Not Active”; in data set [1], “Not Active”; against Cytochrome P450 2E1, “Not Active”; in data set [5] (read-out: IC50), 631 nM. Besides, the Ki entry was “Not Active” on Cytochrome P450 2E1 and 265 nM in data set [5].

With `Cc1ccc(S(=O)(=O)NC(=O)NN2CCCCCC2)cc1` [TOLAZAMIDE], the concentration for half-maximal inhibition (IC50) entry (on Adenosine receptor A2a; in data set [1]; in data set [2]; in data set [3]; in data set [4]; in data set [5] (jurkat)) was “Not Active” in each case. The IC50 result in data set [6] is reported as “Not Active”. The Ki entry in data set [2], in data set [3], in data set [4] and in data set [6] was “Not Active” each time.

For `Cc1cc2c(s1)Nc1ccccc1N=C2N1CCN(C)CC1` [OLANZAPINE], the IC50 result (on Adenosine receptor A2a; in data set [1]; on Cytochrome P450 2E1; in data set [5] (jurkat)) was “Not Active” in each case. In addition, the Ki result on Cytochrome P450 2E1 is on record as “Not Active”.

For `C1CCN2C[C@@H]3C[C@@H](CN4CCCC[C@@H]34)[C@H]2C1` [SPARTEINE], the IC50 entry (at Adenosine receptor A2a; in data set [1]; in data set [2]; in data set [3]; in data set [4]; in data set [5] (jurkat)) was “Not Active” in each case. The IC50 entry in data set [6] is on record as “Not Active”. Also, the Ki entry in data set [2], in data set [3], in data set [4] and in data set [6] was “Not Active” each time.
